Consider two compounds from US7897150B1, “Canine lymphoma cell line and uses thereof” (The Ohio State University, priority 2007, dated 2011).

This assay deals with OSW cell line. Kind of assay: In vitro chemosensitivity (WST-1 cytotoxicity and proliferation assay). To be noted: Canis lupus familiaris; OSW canine T-cell lymphoma cell line, 72 h treatment, WST-1 assay; read-out: inhibitory concentration 50% (IC50). The format is cell-based. The procedure: 1-2×10^4 cells were seeded in 96-well plates in quadruplicates to a final volume of 200 μL/well. Cells were treated with doxorubicin hydrochloride (Ben Venue Laboratories-Novation, Bedford, Ohio, USA) or vincristine sulfate (Mayne Pharma Pty Ltd., Mulgrave VIC, Australia) at varying concentrations of drug or vehicle control for 72 h. Cell proliferation and viability was determined using the WST-1 assay, which quantifies the reduction of the tetrazolium salt WST-1 by mitochondria in viable cells. Cell number was determined from absorbance values of known numbers of cells. At various time intervals, 20 μl of WST-1 reagent (Roche, Indianapolis, Ind., USA) was added to each well and incubated for 2 to 4 h at 37° C. The absorbance of the reaction product, after background subtraction, was measured at 450 nm on a Spectra Max M2 plate reader (Molecular Devices, Sunnyvale, Calif., USA). Each experiment was repeated at least three times.
The in vitro chemosensitivity of the OSW cell line to doxorubicin and vincristine was determined.
For orientation: Formazan colour is commonly taken as a measure of viable cells.

Structures are written as SMILES. Structures can show the parent of a compound that is named as a salt.

`CC[C@]1(O)C[C@H]2CN(CCc3c([nH]c4ccccc34)[C@@](C(=O)OC)(c3cc4c(cc3OC)N(C=O)[C@H]3[C@@](O)(C(=O)OC)[C@H](OC(C)=O)[C@]5(CC)C=CCN6CC[C@]43[C@@H]65)C2)C1` [vincristine, vincristine sulfate]: the IC50 amounted to 400 nM.

On to `COc1cccc2c1C(=O)c1c(O)c3c(c(O)c1C2=O)C[C@@](O)(C(=O)CO)C[C@@H]3O[C@H]1C[C@H](N)[C@H](O)[C@H](C)O1` [Doxorubicin, doxorubicin hydrochloride], for which the IC50 amounted to 500 nM.
